Legend:
[1] = biodistribution in tumor-bearing Nude rats (ex vivo gamma counting)
Experimental: Dynamic PET scan imaging and ex vivo gamma counting were performed on three cancer xenografts (NCI-H441, NCI-H3255, NCI-H1975) in Nude rats. Xenografts were initiated in athymic, Hsd:RH-Foxnlrnu rats (Harlan, The Netherlands) by subcutaneous injection of 2×10^7 cells in 200 μL RPMI 1640 in the left and right flanks. NCI-H3255 tumor cells were injected in the right flank and NCI-H441 or NCI-H1975 in the left flank. Each study consisted in two experiments on 18 or 19 rats, for a total of 113 rats. Injection of NCI-H3255 cells was performed on DO, 24 to 72 hours after a whole-body irradiation with a […] (5 Gy, ^60Co, BioMep SARL, Bretenières, France). […]
The radiotracer solution was diluted in NaCl 0.9% to prepare a solution of activity 4-6 MBq (gamma-counting experiments) or 25-35 MBq (PET imaging experiments) in a volume of 300-400 or 600-800 μL, respectively. The radioactivity in the syringe was measured before and after tracer injection to determine the injected dose (ID) to animals. […]
For ex vivo gamma counting, after the determined uptake period or after imaging, rats were euthanized by decapitation, and the following organs were harvested and weighed: tumor, kidneys, blood, liver, heart, tail, thigh muscle, lungs, spleen and skin. Tracer distribution was assessed by determining ^18F content in each tissue with a gamma-well counter (PerkinElmer 2480 Wizard2 3). […]

[2] = test system: human lung tumors (wild type EGFR, L858R mutated or exon 19 deleted EGFR); assay: autoradiography on human frozen tumor sections
Excerpt: Three types of human lung tumors were included: tumors harboring wild type EGFR and tumors carrying L858R mutated or exon 19 deleted EGFR genes.

[3] = target: T1, NCI-H1975 tumor homogenates (activated EGFR) (Homo sapiens, UniProt P00533, L858R/T790M); assay: binding competition and binding kinetic on tumor homogenates
T1 construct: from tissue; host or cells: NCI-H1975 tumor homogenate
T1 sequence (P00533 25-1210 T790M/L858R): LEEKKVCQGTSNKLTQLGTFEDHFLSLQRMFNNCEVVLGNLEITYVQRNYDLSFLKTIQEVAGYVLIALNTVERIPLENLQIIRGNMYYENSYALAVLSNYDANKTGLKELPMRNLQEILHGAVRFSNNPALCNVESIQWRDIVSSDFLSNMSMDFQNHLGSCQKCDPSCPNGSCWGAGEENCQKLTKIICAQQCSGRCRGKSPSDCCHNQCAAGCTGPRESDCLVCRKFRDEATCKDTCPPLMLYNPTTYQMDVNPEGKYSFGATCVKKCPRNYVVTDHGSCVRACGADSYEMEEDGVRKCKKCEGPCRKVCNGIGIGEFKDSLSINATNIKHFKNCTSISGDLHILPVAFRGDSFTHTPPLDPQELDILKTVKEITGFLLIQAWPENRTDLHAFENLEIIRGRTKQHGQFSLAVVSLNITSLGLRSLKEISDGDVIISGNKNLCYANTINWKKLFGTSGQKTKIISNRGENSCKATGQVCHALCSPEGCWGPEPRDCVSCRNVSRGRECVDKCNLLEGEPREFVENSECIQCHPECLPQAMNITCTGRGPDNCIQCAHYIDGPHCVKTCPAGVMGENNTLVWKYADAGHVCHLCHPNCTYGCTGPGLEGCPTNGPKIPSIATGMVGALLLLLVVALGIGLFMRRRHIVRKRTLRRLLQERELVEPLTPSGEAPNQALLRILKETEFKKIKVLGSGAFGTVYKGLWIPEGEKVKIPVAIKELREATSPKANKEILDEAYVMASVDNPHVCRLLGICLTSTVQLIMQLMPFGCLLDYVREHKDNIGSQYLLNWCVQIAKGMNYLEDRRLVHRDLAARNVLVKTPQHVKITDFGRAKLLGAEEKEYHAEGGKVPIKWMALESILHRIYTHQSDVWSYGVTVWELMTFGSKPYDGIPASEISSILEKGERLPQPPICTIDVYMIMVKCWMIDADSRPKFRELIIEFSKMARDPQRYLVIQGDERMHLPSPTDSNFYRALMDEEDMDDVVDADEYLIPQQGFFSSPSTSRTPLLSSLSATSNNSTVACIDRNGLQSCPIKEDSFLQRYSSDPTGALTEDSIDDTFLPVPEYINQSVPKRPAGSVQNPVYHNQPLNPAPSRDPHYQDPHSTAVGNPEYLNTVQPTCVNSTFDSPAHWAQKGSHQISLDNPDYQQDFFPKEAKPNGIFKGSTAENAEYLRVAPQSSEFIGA
Experimental: (§1) FIG. 2: Binding affinity constant of Compound (II) determined in competition experiments on NCI-H3255 (A) and NCI-H1975 (B) tumor extracts. NCI-H3255 and NCI-H1975 tumor extracts were incubated at room temperature for 90 min with Compound (II) (0.1-0.3 nM) and with increasing concentrations of Compound (IIa) (0.25 nM to 1 μM).
(§2) FIG. 3: Binding kinetic of Compound (II) evaluated on NCI-H3255 (A) and NCI-H1975 (B) tumor extracts. Compound (II) (1.5-2.5 nM) was incubated with extracts for 2 to 90 minutes at room temperature. Non-specific binding was evaluated in the presence of a>100 fold excess Compound (IIa).
(§3) Similar experiments were performed on NCI-H3255 and NCI-H1975 tumor homogenates (FIG. 2). […] The number of binding sites was 1.1±1.5×10^9 and 1.6±1.8×10^9 sites/μg protein respectively in NCI-H3255 and NCI-H1975 tumor homogenates.
(§4) The binding kinetic of Compound (I) was also assessed in NCI-H3255 and NCI-H1975 tumor homogenates (FIG. 3).

[4] = target: T2, NCI-H3255 tumor homogenates (activated EGFR) (Homo sapiens, UniProt P00533, L858R); assay: as above
T2 construct: from tissue; host or cells: NCI-H3255 tumor homogenate
T2 sequence (P00533 25-1210 L858R): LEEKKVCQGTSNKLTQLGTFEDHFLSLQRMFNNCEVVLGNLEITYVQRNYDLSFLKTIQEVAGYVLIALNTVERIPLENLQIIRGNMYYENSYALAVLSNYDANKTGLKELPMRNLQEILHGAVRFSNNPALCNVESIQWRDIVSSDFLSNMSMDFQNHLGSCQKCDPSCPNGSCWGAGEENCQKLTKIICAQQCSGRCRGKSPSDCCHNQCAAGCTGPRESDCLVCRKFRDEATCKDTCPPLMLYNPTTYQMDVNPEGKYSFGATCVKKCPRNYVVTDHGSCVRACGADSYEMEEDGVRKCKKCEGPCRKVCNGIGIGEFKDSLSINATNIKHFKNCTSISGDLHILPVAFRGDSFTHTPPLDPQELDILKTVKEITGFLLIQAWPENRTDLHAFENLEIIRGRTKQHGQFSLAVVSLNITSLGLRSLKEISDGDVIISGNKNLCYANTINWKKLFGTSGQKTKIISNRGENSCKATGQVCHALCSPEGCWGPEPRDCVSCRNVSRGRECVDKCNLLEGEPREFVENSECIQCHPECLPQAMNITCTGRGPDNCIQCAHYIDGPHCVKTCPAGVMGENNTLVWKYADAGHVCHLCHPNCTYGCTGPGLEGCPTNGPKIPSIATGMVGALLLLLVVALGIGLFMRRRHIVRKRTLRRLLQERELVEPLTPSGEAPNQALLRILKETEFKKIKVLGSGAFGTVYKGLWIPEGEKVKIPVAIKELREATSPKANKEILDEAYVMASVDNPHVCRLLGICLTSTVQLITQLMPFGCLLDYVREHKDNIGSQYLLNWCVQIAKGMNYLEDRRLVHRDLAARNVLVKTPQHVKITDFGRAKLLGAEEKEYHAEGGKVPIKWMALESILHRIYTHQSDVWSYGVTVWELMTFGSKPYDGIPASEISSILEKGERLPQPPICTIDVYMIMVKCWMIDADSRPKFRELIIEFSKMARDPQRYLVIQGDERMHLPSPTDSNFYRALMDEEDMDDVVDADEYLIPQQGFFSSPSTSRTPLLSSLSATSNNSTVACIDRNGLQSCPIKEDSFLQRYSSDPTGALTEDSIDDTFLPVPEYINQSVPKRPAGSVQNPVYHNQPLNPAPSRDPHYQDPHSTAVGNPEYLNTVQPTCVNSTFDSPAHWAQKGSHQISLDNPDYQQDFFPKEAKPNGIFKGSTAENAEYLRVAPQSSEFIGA
Experimental: as §1, §2, §3, §4

[5] = test system: NCI-H3255 tumors; assay: tumor uptake in xenograft-bearing Nude rats; assay type: in vivo
Experimental: (§5) Dynamic PET scan imaging and ex vivo gamma counting were performed on three cancer xenografts (NCI-H441, NCI-H3255, NCI-H1975) in Nude rats. Xenografts were initiated in athymic, Hsd:RH-Foxnlrnu rats (Harlan, The Netherlands) by subcutaneous injection of 2×10^7 cells in 200 μL RPMI 1640 in the left and right flanks. NCI-H3255 tumor cells were injected in the right flank and NCI-H441 or NCI-H1975 in the left flank. Each study consisted in two experiments on 18 or 19 rats, for a total of 113 rats. Injection of NCI-H3255 cells was performed on DO, 24 to 72 hours after a whole-body irradiation with a […] (5 Gy, ^60Co, BioMep SARL, Bretenières, France). […] Tumors were grown until a target volume of 500-1500 mm^3 for both tumors was reached, whenever possible. All procedures using animals were approved by the Animal Care and Use Committee of Oncodesign (CNREEA agreement No 91).
(§6) The radiotracer solution was diluted in NaCl 0.9% to prepare a solution of activity 4-6 MBq (gamma-counting experiments) or 25-35 MBq (PET imaging experiments) in a volume of 300-400 or 600-800 μL, respectively. The radioactivity in the syringe was measured before and after tracer injection to determine the injected dose (ID) to animals. Rats were anesthetized with inhaled isoflurane (2% in air) for compound injection and throughout the course of image acquisition. After compound injection, rats were allowed to wake up and put back in their cage for an uptake period ranging from 20 to 120 minutes depending on the experiment.
(§7) For ex vivo gamma counting, after the determined uptake period or after imaging, rats were euthanized by decapitation, and the following organs were harvested and weighed: tumor, kidneys, blood, liver, heart, tail, thigh muscle, lungs, spleen and skin. Tracer distribution was assessed by determining ^18F content in each tissue with a gamma-well counter (PerkinElmer 2480 Wizard2 3). Counting data are reported as % ID per gram of tissue (% ID/g). Once radioactivity in organs was measured, some samples were prepared for immunohistochemistry.
(§8) For imaging experiments, rats were positioned prone in a dedicated rat imaging chamber (Minerve, France). Their body temperature was maintained by a flow of warm air through the structure of the imaging bed. PET imaging was performed on a microPET eXplore Vista CT (General Electric Healthcare) system. The Vista system, equipped with 36 dual-layer LYSO/GSO phoswich detector modules, has an effective axial/transaxial field of view of 4.8/6.7 cm. The spatial resolution is <2 mm in all directions and in the whole field of view. The sensitivity is above 2.5% in the whole field of view. After a scout image to adjust the position of the field of view, a CT scan was acquired (140 μA, 40 kV). […]

[6] = test system: NCI-H441 tumors; assay: tumor uptake in xenograft-bearing Nude rats; assay type: in vivo; settings: NCI-H441, at 180 min
Experimental: as §5, §6, §7, §8

[7] = test system: NCI-H1975 tumors; assay: tumor uptake in xenograft-bearing Nude rats; assay type: in vivo; settings: NCI-H1975, at 180 min
Experimental: as §5, §6, §7, §8

[8] = read-out: dissociation constant (Koff) (converted)

CC(C)C1NC(=O)Cc2ccc(Cl)cc2Nc2ncnc3cc(OCC[18F])c(cc23)OCCCNC1=O (stereo not shown) [Compound (I)]
uptake in blood ([1]; after 45 min): < 0.05 % ID/g | absolute uptake in tumors ([1]; at 90 min): < 0.5 % ID/g | specific binding on frozen tumor sections [2]: specific binding of Compound (I) was observed on all tumor types | number of binding sites [3]: 1.6±1.8×10^9 sites/μg protein | Kd ([3]; read-out: binding affinity): 4.7 ± 2 nM | koff [3, 8]: 0.0045 s⁻¹ | number of binding sites [4]: 1.1±1.5×10^9 sites/μg protein | Kd ([4]; read-out: binding affinity): 2.8 ± 2.4 nM | koff [4, 8]: 0.0019 s⁻¹ | normalized uptake (tumor over muscle) ([5]; NCI-H3255, at 180 min): 12 | uptake in NCI-H3255 tumors ([5]; stable between 90 min and 180 min): around 0.2 % ID/g | normalized uptake (tumor over muscle) [6]: 2.6 | normalized uptake (tumor over muscle) [7]: 3.6
